Results taken from patent publication US6608082B1, “Treatment of erectile dysfunction using isoquinoline compound melanocortin receptor ligands” (Lion Bioscience AG, priority 1998, dated 2003).
“And” between values parts separate entries of the source, which are not always exact repeats. Equal entries are not always repeated. Where two headings read alike, the source gives them in different places.

What was measured:
[1] = molecular target: T1, MCR-5 (Homo sapiens, UniProt P33032); assay: Melanocortin receptor binding assay, competition with 125I-HP 467, HEK 293 cells expressing hMCR-5; conditions: binding to MCR-5, HEK 293 cells; read-out: MC-5 IC50
T1 construct: expressed in transfected cells; host or cells: HEK 293
Source text: All cell culture media and reagents were obtained from GibcoBRL (Gaithersburg Md.), except for COSMIC CALF SERUM (HyClone; Logan Utah). HEK-293 cell lines were transfected with the human MC receptors hMCR-1, hMCR-3, and hMCR-4 (Gantz et al., Biochem. Biophys. Res. Comm. 200:1214-1220 (1994); Gantz et al., J. Biol. Chem. 268:8246-8250 (1993); Gantz et al. J. Biol. Chem. 268:15174-15179 (1993); Haskell-Leuvano et al., Biochem. Biophys. Res. Comm. 204:1137-1142 (1994); each of which is incorporated herein by reference). Vectors for construction of an hMCR-5 expressing cell line were obtained, and a line of HEK 293 cells expressing hMCR-5 was constructed (Gantz, supra, 1994). hMCR-5 has been described previously (Franberg et al., Biochem. Biophys. Res. Commun. 236:489-492 (1997); Chowdhary et al., Cytogenet. Cell Genet. 68:1-2 (1995); Chowdhary et al., Cytogenet. Cell Genet. 68:79-81 (1995), each of which is incorporated herein by reference). HEK 293 cells were maintained in DMEM, 25 mM HEPES, 2 mM glutamine, non-essential amino acids, vitamins, sodium pyruvate, 10% COSMIC CALF SERUM, 100 units/ml penicillin, 100 μg/ml streptomycin and 0.2 mg/ml G418 to maintain selection.
Before assaying, cells were washed once with phosphate buffered saline (“PBS”; without Ca^2+ and Mg^2+), and stripped from the flasks using 0.25% trypsin and 0.5 mM EDTA. Cells were suspended in PBS, 10% COSMIC CALF SERUM and 1 mM CaCl2. Cell suspensions were prepared at a density of 2×10^4 cells/ml for HEK 293 cells expressing hMCR-3, hMCR-4 or hMCR-5, and 1×10^5 cells/ml for HEK 293 cells expressing hMCR-1. Suspensions were placed in a water bath and allowed to warm to 37° C. for 1 hr.
Binding assays were performed in a total volume of 250 μl for HEK 293 cells. Control and test compounds were dissolved in distilled water. ^125I-HP 467 (50,000 dpm) (2000 Ci/mmol) (custom labeled by Amersham; Arlington Heights Ill.) was prepared in 50 mM Tris, pH 7.4, 2 mg/ml BSA, 10 mM CaCl2, 5 mM MgCl2, 2 mM EDTA and added to each tube. To each tube was added 4×10^3 HEK 293 cells expressing hMCR-3, hMCR-4 or hMCR-5, or 2×10^4 cells expressing hMCR-1. Assays were incubated for 2.5 hr at 37° C.
GF/B filter plates were prepared by soaking for at least one hour in 5 mg/ml BSA and 10 mM CaCl2. Assays were filtered using a Brandel 96-well cell harvester (Brandel Inc.; Gaithersburg, Md.). The filters were washed four times with cold 50 mM Tris, pH 7.4, the filter plates were dehydrated for 2 hr and 35 μl of MICROSCINT was added to each well. Filter plates were counted using a Packard Topcount (Packard Instrument Co.) and data analyzed using GraphPad PRISM v2.0 (GraphPad Software Inc.; San Diego Calif.) and Microsoft EXCEL v5.0a (Microsoft Corp.; Redmond Wash.).
To assay isoquinoline compounds, binding assays were performed in duplicate in a 96 well format. HP 467 was prepared in 50 mM Tris, pH 7.4, and ^125I-HP 467 was diluted to give 100,000 dpm per 50 μl. An isoquinoline compound, synthesized as described in Example I, was added to the well in 25 μl aliquots. A 25 μl aliquot of ^125I-HP 467 was added to each well. A 0.2 ml aliquot of suspended cells was added to each well to give the cell numbers indicate above, and the cells were incubated at 37° C. for 2.5 hr. Cells were harvested on GF/B filter plates as described above and counted.
Some of the isoquinoline compounds were further tested for binding to MCR-3 and MCR-5.

[2] = tested on: IL-10; assay: Increasing levels of IL-10 in mice (plasma ELISA); assay type: in vivo; conditions: for % IL-10 Induction, IP 30: 30 μg per mouse; for % IL-10 Induction, IP 30 / % IL-10 Induction, IP 300 / % IL-10 Induction, IP 100 / % IL-10 Induction, Oral 300 / % IL-10 Induction, Oral 600: mouse plasma, 90 or 105 minutes; for % IL-10 Induction, IP 300 / % IL-10 Induction, Oral 300: 300 μg per mouse; for % IL-10 Induction, IP 100: 100 μg per mouse; for % IL-10 Induction, Oral 600: 600 μg per mouse
How it was run: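 Mice were dosed intraperitoneally at 30, 100 or 300 μg/mouse or orally at 300 or 600 μg/mouse, and plasma was sampled 90 or 105 min post-dose. IL-10 was quantified by sandwich ELISA (rat anti-mouse capture, biotinylated detection antibody, streptavidin-HRP/TMB) against IL-10 standards.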

[3] = molecular target: T2, MCR-1 (Homo sapiens, UniProt Q01726); assay: Melanocortin receptor binding assay, competition with 125I-HP 467, HEK 293 cells expressing hMCR-1; conditions: for IC50: read-out: MC-1 IC50; for % Disp. of 125I-HP 467 (first of duplicate) / % Disp. of 125I-HP 467 (second of duplicate): 10 μM isoquinoline compound; for % Disp. of 125I-HP 467 (first of duplicate): HEK 293 cells expressing MCR-1, duplicate 1; for % Disp. of 125I-HP 467 (second of duplicate): HEK 293 cells expressing MCR-1, duplicate 2; for specificity for at least one MC receptor over another MC receptor: MCR-1 versus MCR-4 binding; for effectiveness as MC receptor ligand: binding to MC receptors, Table 1; for % Disp. MC-1 10 μM: displacement of 125I-HP 467 at 10 μM isoquinoline compound
T2 construct: expressed in transfected cells; host or cells: HEK 293
How it was run: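 Intact-cell competition binding, 2.5 hr at 37 °C, in PBS/10% calf serum/1 mM CaCl2; hMCR-4 cells at 4×10^3 per tube, hMCR-1 cells at 2×10^4 per tube. Filtration on BSA/CaCl2-soaked GF/B, cold 50 mM Tris pH 7.4 washes, scintillation count.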

[4] = TRG 2408 and TRG 2409 libraries, inhibition of 125I-HP 467 binding

T1 sequence (P33032 whole entry): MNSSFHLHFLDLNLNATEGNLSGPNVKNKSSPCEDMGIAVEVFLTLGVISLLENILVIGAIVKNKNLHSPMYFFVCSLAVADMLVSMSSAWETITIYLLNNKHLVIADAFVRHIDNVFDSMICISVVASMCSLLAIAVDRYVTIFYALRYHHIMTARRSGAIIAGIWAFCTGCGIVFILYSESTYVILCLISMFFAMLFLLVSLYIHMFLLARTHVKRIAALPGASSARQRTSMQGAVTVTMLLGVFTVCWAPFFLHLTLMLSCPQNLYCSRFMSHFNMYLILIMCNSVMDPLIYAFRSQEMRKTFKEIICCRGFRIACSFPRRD
T2 sequence (Q01726 whole entry): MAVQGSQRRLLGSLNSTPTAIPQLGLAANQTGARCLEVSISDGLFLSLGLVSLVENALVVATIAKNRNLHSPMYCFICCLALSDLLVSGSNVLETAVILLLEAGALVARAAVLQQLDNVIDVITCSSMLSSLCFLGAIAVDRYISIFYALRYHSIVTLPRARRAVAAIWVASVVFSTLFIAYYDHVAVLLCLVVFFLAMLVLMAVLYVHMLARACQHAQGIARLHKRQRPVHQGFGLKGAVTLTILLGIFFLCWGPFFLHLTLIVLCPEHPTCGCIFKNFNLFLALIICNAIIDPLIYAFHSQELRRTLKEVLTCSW

Structure (SMILES)	IC50 [1] [nM]	% IL-10 Induction, IP 30 [2] [%]	% IL-10 Induction, IP 300 [2] [%]	IC50 ([3]; TRG 2406 and TRG 2407 libraries, inhibition of binding of 125I-HP 467) [nM]	% IL-10 Induction, IP 100 [2]	% IL-10 Induction, Oral 300 [2] [%]	% IL-10 Induction, Oral 600 [2] [%]	increase of IL-10 ([2]; plasma levels in mice)	% Disp. of 125I-HP 467 (first of duplicate) [3] [%]	% Disp. of 125I-HP 467 (second of duplicate) [3] [%]	specificity for at least one MC receptor over another MC receptor [3]	effectiveness as MC receptor ligand [3]	increase of IL-10 ([2]; administered orally)	IC50 [3, 4] [nM]	IC50 ([3]; TRG 2405 section, inhibition of binding of 125I-HP 467, HEK 293 cells expressing MCR-1) [nM]	% Disp. MC-1 10 μM ([3]; first of duplicate) [%]	% Disp. MC-1 10 μM ([3]; second of duplicate) [%]
CNC(CN)CCCCN1Cc2ccccc2C(CN)C1c1ccc(Cl)cc1Cl (stereo not shown) [TRG 2407-39]	240	34 ± 13	366 ± 12	910													
CNC(CN)CCCCN1Cc2ccccc2C(CNC2CCCCC2)C1c1ccc(-c2ccccc2)cc1 (stereo not shown) [TRG 2405-241]	1040	117 ± 21	406 ± 46		310 ± 35 %	9 ± 23	77 ± 37	particularly effective at increasing IL-10	89.5	88.8	about 10 fold	particularly effective MC receptor ligands					
CCNc1ccc(C2C(CNC3CCCCC3)c3ccccc3CN2CCCCC(CN)NC)cc1 (stereo not shown) [TRG 2408-30]	9350	−20 ± 14	24 ± 12			33 ± 18	136 ± 41	particularly effective at increasing IL-10			about 10 fold	particularly effective MC receptor ligands	particularly effective at increasing IL-10	1170			
CNC(CN)CN1Cc2ccccc2C(CNC2CCCCC2)C1c1ccc(O)cc1 (stereo not shown) [TRG 2405-156]	2830	17 ± 23	43 ± 34		−5 ± 11%										17000	25.9	21.3
CCNc1ccc(C2C(CNC3CCCCC3)c3ccccc3CN2CCCC(CN)NCCc2ccccc2)cc1 (stereo not shown) [TRG 2408-62]	2790	51 ± 15	270 ± 71			43 ± 20	27 ± 10					particularly effective MC receptor ligands		120			
CCNc1ccc(C2C(CNCc3ccccc3O)c3ccccc3CN2CCCC(CN)NCCc2ccccc2)cc1 (stereo not shown) [TRG 2408-57]	1700	123 ± 30	386 ± 25		247 ± 75 % and 225 ± 31 %	57 ± 11	104 ± 16					particularly effective MC receptor ligands		280			
CCNc1ccc(C2C(CNC3CCCCC3)c3ccccc3CN2CCCCC(CN)NC)cc1 (stereo not shown) [TRG 2405-239]	8720	44 ± 35	197 ± 34		−29 ± 6%		46 ± 14		86.6	85.2		particularly effective MC receptor ligands					
CNC(CN)CCCCN1Cc2ccccc2C(CNC2CCCCC2)C1c1ccc(Br)cc1 (stereo not shown) [TRG 2405-242]	410				−9 ± 7%				86	83.4							
CNC(CN)CCCCN1Cc2ccccc2C(CNC2CCCCC2)C1c1ccc(Cl)cc1Cl (stereo not shown) [TRG 2405-190]	800	25 ± 30	109 ± 31		13 ± 14%			particularly effective at increasing IL-10	79.4	81		particularly effective MC receptor ligands					
CCCOc1ccc(C2C(CNC3CCCCC3)c3ccccc3CN2CCCCC(CN)NC)cc1 (stereo not shown) [TRG 2405-253]	2770	7 ± 21	325 ± 73					particularly effective at increasing IL-10	93.9	92.2	about 10 fold	particularly effective MC receptor ligands					
CNC(CN)CCCCN1Cc2ccccc2C(CNC2CCCCC2)C1c1ccc(O)cc1 (stereo not shown) [TRG 2405-246]	> 10000						30 ± 5		26.5	20.7							
